Laboratory results reported in ChEMBL document CHEMBL3217482, “Synthesis and biological evaluation of novel 1-aryl, 5-(phenoxy-substituted)aryl-1,4-pentadien-3-one derivatives” (Medchemcomm, 2011).

Tests used:
Bcap37 [1] = test: Antiproliferative against human Bcap37 cells assessed as growth inhibition after 72 hrs by MTT assay; assay type: functional, cell-based; settings: Bcap37, 72 h
[2] = Antiproliferative against human BGC823 cells assessed as growth inhibition at 1 uM after 72 hrs by MTT assay relative to control; assay type: functional; settings: BGC-823, 72 h, read-out: GI
Bcap37 [3] = test: Antiproliferative against human Bcap37 cells assessed as growth inhibition at 1 uM after 72 hrs by MTT assay relative to control; assay type: functional; settings: Bcap37, 72 h, read-out: GI
[4] = Antiproliferative against human BGC823 cells assessed as growth inhibition after 72 hrs by MTT assay; assay type: functional, cell-based; settings: BGC-823, 72 h
Bcap37 [5] = test: Antiproliferative against human Bcap37 cells assessed as growth inhibition at 10 uM after 72 hrs by MTT assay relative to control; assay type: functional; settings: Bcap37, 72 h, read-out: GI
PC-3 [6] = test: Antiproliferative against human PC3 cells assessed as growth inhibition at 10 uM after 72 hrs by MTT assay relative to control; assay type: functional; settings: PC-3, 72 h, read-out: GI
PC-3 [7] = test: Antiproliferative against human PC3 cells assessed as growth inhibition at 1 uM after 72 hrs by MTT assay relative to control; assay type: functional; settings: PC-3, 72 h, read-out: GI
[8] = Antiproliferative against human BGC823 cells assessed as growth inhibition at 10 uM after 72 hrs by MTT assay relative to control; assay type: functional; settings: BGC-823, 72 h, read-out: GI

Q: With COc1cccc2c1C(=O)c1c(O)c3c(c(O)c1C2=O)C[C@@](O)(C(=O)CO)C[C@@H]3O[C@H]1C[C@H](N)[C@H](O)[C@H](C)O1 [DOXORUBICIN] as the molecule, how does the IC50 (Bcap37 [1]) read?
A: The IC50 was 2000 nM.

Q: What about the inhibition of growth at 1 µM [2] of the same molecule?
A: The inhibition of growth at 1 µM was 90.7%.

Q: What about the inhibition of growth at 1 µM (Bcap37 [3]) of the same molecule?
A: The inhibition of growth at 1 µM was 84.2%.

Q: And the IC50 [4]?
A: The IC50 was 2600 nM.

Q: What about the inhibition of growth at 10 µM (Bcap37 [5]) of the same molecule?
A: The inhibition of growth at 10 µM was 93.1%.

Q: What about the inhibition of growth at 10 µM (PC-3 [6]) of the same molecule?
A: Its inhibition of growth at 10 µM is 94.7%.

Q: What about the inhibition of growth at 1 µM (PC-3 [7]) of the same molecule?
A: Its inhibition of growth at 1 µM is 88.2%.

Q: And the inhibition of growth at 10 µM [8]?
A: Its inhibition of growth at 10 µM is 95.9%.

Q: Which inhibition of growth at 1 µM [2] does the source give for CC[C@@]1(O)C(=O)OCc2c1cc1n(c2=O)Cc2cc3cc(O)ccc3nc2-1 [HYDROXYCAMPTOTHECIN] here?
A: Its inhibition of growth at 1 µM is 7.3%.

Q: What about the inhibition of growth at 1 µM (Bcap37 [3]) of the same molecule?
A: The inhibition of growth at 1 µM was 8.8%.

Q: What about the inhibition of growth at 10 µM (Bcap37 [5]) of the same molecule?
A: The inhibition of growth at 10 µM was 33.5%.

Q: What about the inhibition of growth at 10 µM (PC-3 [6]) of the same molecule?
A: The inhibition of growth at 10 µM was 37%.

Q: And the inhibition of growth at 1 µM (PC-3 [7])?
A: Its inhibition of growth at 1 µM is 17.1%.

Q: And the inhibition of growth at 10 µM [8]?
A: The inhibition of growth at 10 µM was 26.5%.
